From ChEMBL document CHEMBL3526144 (Drug Metab Dispos, 2011) come the findings set out here.

As a reminder, the Ki is a measure of affinity in units of concentration, obtained from inhibition or displacement. Higher therefore signals weaker binding.

Data set [1] is described as follows: Inhibition of CYP3A4.1 (unknown origin)-mediated testosterone 6beta-hydroxylation incubated for 10 mins prior to NADPH addition measured after 20 mins by HPLC-UV analysis.
A short description of data set [2]: Inhibition of CYP3A4.2 (unknown origin)-mediated testosterone 6beta-hydroxylation incubated for 10 mins prior to NADPH addition measured after 20 mins by HPLC-UV analysis.
Data set [3] in a line: Inhibition of CYP3A4.7 (unknown origin)-mediated testosterone 6beta-hydroxylation incubated for 10 mins prior to NADPH addition measured after 20 mins by HPLC-UV analysis.
Data set [4] can be described thus: Inhibition of CYP3A4.16 (unknown origin)-mediated testosterone 6beta-hydroxylation incubated for 10 mins prior to NADPH addition measured after 20 mins by HPLC-UV analysis.
Data set [5] can be described thus: Inhibition of CYP3A4.18 (unknown origin)-mediated testosterone 6beta-hydroxylation incubated for 10 mins prior to NADPH addition measured after 20 mins by HPLC-UV analysis.
A further data set concerns CYP3A4.7 and CYP3A4.1. The data set can be described thus: Ratio of Ki for CYP3A4.7 (unknown origin) to Ki for CYP3A4.1 (unknown origin). Type of data set: ADME. The conditions noted are these: human.
Another data set deals with CYP3A4.16 and CYP3A4.1. Put plainly: Ratio of Ki for CYP3A4.16 (unknown origin) to Ki for CYP3A4.1 (unknown origin). The conditions noted are these: human.
Another data set relates to CYP3A4.2 and CYP3A4.1. Put plainly: Ratio of Ki for CYP3A4.2 (unknown origin) to Ki for CYP3A4.1 (unknown origin). Type of data set: ADME. As to conditions: human.

Turning to `CCC(C)n1ncn(-c2ccc(N3CCN(c4ccc(OCC5COC(Cn6cncn6)(c6ccc(Cl)cc6Cl)O5)cc4)CC3)cc2)c1=O` (stereo not drawn) [ITRACONAZOLE], the Ki was 76 nM in data set [1]; 45 nM in data set [2]; 179 nM in data set [3]; 41 nM in data set [4]; 82 nM in data set [5]. Also, the selectivity ratio with CYP3A4.7 and CYP3A4.1 came out at 2.4; in the data set with CYP3A4.16 and CYP3A4.1, 0.54; in the data set with CYP3A4.2 and CYP3A4.1, 0.59.
